In patent US9522911B2, “Crystalline forms of tricyclic compound acid salt or hydrate thereof, and method for making thereof” (Jeil Pharmaceutical Co., Ltd., priority 2012, dated 2016):

Tests used:
[1] = Stability of crystalline vs amorphous compound by change of XRD diffraction pattern (with moisture content); assay type: physicochemical; details: for Change of XRD diffraction pattern with respect to time (in words): X-ray diffraction analysis
Experimental: For comparing the stability of the crystalline compound of Example 1 according to the present invention and the amorphous compound of Comparative Example 2, the following experiment was performed.
The stability of each of the crystalline compound of Example 1 according to the present invention and the amorphous compound of Comparative Example 2 was measured by measuring the change of a diffraction pattern through X-ray diffraction analysis (XRD).
For the amorphous compound of Comparative Example 2, accurate and specific XRD pattern of the amorphous type was not shown, however amorphous 10-ethoxy-8-(morpholinomethyl)-1,2,3,4-tetrahydrobenzo[h][1,6]naphthyridine-5(6H)-on dichloride obtained after freeze drying absorbs surrounding moisture during performing the XRD, thereby increasing the crystallinity and showing XRD peaks.
Meanwhile, the moisture content of the compound of Comparative Example 2 was 0.4% immediately after drying, and was increased to 5.2% after measuring XRD.

[2] = Stability: moisture content with respect to time in thermo-hygrostat (Karl Fisher); assay type: physicochemical; details: 25° C. and 60% RH, opened Petri dish
Experimental: To compare the stability of 10-ethoxy-8-(morpholinomethyl)-1,2,3,4-tetrahydrobenzo[h][1,6]naphthyridine-5(6H)-on dichloride dihydrate prepared in Example 1 and 10-ethoxy-8-(morpholinomethyl)-1,2,3,4-tetrahydrobenzo[h][1,6]naphthyridine-5(6H)-on dichloride anhydride prepared in Comparative Example 1, the following experiment was performed.
3.0 g of each of the compounds was put in a Petri dish, and the Petri dish was left in a thermo-hygrostat maintaining 25° C. and 60% RH with an opened state. The moisture content with respect to time was measured using a Karl Fisher apparatus and recorded. By measuring the change of the moisture content with respect to time under the above-described conditions, the stability of the dihydrate and that of the anhydride were compared. The results are illustrated in the following Table 1 and FIG. 1.

Structure (SMILES) | Change of XRD diffraction pattern with respect to time (in words) [1] | Moisture content ([1]; after measuring XRD) | Moisture content ([1]; immediately after drying) | Change of the moisture content with respect to time (in words) [2] | Moisture content ([2]; 30 min) | Moisture content ([2]; 1 h) | Moisture content ([2]; 2 h) | Moisture content ([2]; 1 day) | Moisture content ([2]; 2 days) | Moisture content ([2]; initial state) | Change of the moisture content with respect to time (in words) ([2]; dihydrate) | Moisture content ([2]; 30 min, dihydrate) | Moisture content ([2]; 1 h, dihydrate) | Moisture content ([2]; 2 h, dihydrate) | Moisture content ([2]; 1 day, dihydrate) | Moisture content ([2]; 2 days, dihydrate) | Moisture content ([2]; initial state, dihydrate)
CCOc1cc(CN2CCOCC2)cc2[nH]c(=O)c3c(c12)NCCC3.Cl.Cl [Comparative Example 2, 10-ethoxy-8-(morpholinomethyl)-1,2,3,4-tetrahydrobenzo[h][1,6]naphthyridine-5(6H)-on dichloride] | crystallinity thereof is increased | 5.2% | 0.4% | – | – | – | – | – | – | – | – | – | – | – | – | – | –
CCOc1cc(CN2CCOCC2)cc2[nH]c(=O)c3c(c12)NCCC3 [Comparative Example 1, 10-ethoxy-8-(morpholinomethyl)-1,2,3,4-tetrahydrobenzo[h][1,6]naphthyridine-5(6H)-on dichloride anhydride] | – | – | – | increased within 30 minutes from the initial state | 9.70% | 10.18% | 9.79% | 9.72% | 9.86% | 0.40% | – | – | – | – | – | – | –
CCOc1cc(CN2CCOCC2)cc2[nH]c(=O)c3c(c12)NCCC3 [Example 1, 10-ethoxy-8-(morpholinomethyl)-1,2,3,4-tetrahydrobenzo[h][1,6]naphthyridine-5(6H)-on dichloride dihydrate] | constant data without change of the XRD diffraction pattern | – | – | – | – | – | – | – | – | – | constant | 8.75% | 8.80% | 8.79% | 8.77% | 8.81% | 8.77%
